Assay results from ChEMBL document CHEMBL2429864, “Synthesis and antimicrobial evaluation of 1,3,4-oxadiazole-based chalcone derivatives” (2013).
≈ marks a conversion by molar mass, not a printed value.

What was measured:
Type in all cases: functional
[1] = system: Aspergillus niger; assay: Antifungal activity against Aspergillus niger ATCC 1015
[2] = system: Candida albicans; assay: Antifungal activity against Candida albicans ATCC 10231
[3] = system: Escherichia coli; assay: Antibacterial activity against Escherichia coli ATCC 25922 by micro dilution/broth titre method
[4] = system: Pseudomonas aeruginosa; assay: Antibacterial activity against Pseudomonas aeruginosa ATCC 27853 by micro dilution/broth titre method
[5] = system: Enterococcus faecalis; assay: Antibacterial activity against Enterococcus faecalis ATCC 29212 by micro dilution/broth titre method
[6] = system: Staphylococcus aureus; assay: Antibacterial activity against Staphylococcus aureus ATCC 25923 by micro dilution/broth titre method

Row | SMILES | MIC [1] | MIC [2] | MIC [3] | MIC [4] | MIC [5] | MIC [6]
1 | O=C(CSc1nnc(-c2cccc([N+](=O)[O-])c2)o1)Nc1ccc(C(=O)/C=C\c2ccccc2O)cc1 | 125 µg/mL (≈ 249 µM) | 125 µg/mL (≈ 249 µM) | 62.5 µg/mL (≈ 124 µM) | 62.5 µg/mL (≈ 124 µM) | 125 µg/mL (≈ 249 µM) | 62.5 µg/mL (≈ 124 µM)
2 | O=C(CSc1nnc(-c2cccc([N+](=O)[O-])c2)o1)Nc1ccc(C(=O)/C=C\c2ccccc2[N+](=O)[O-])cc1 | 250 µg/mL (≈ 470 µM) | 250 µg/mL (≈ 470 µM) | 62.5 µg/mL (≈ 118 µM) | 62.5 µg/mL (≈ 118 µM) | 125 µg/mL (≈ 235 µM) | 125 µg/mL (≈ 235 µM)
3 | O=C(CSc1nnc(-c2cccc([N+](=O)[O-])c2)o1)Nc1ccc(C(=O)/C=C\c2ccc(Cl)cc2)cc1 | 62.5 µg/mL (≈ 120 µM) | 62.5 µg/mL (≈ 120 µM) | 62.5 µg/mL (≈ 120 µM) | 31.2 µg/mL (≈ 60 µM) | 62.5 µg/mL (≈ 120 µM) | 62.5 µg/mL (≈ 120 µM)
4 | COc1ccc(/C=C\C(=O)c2ccc(NC(=O)CSc3nnc(-c4cccc([N+](=O)[O-])c4)o3)cc2)cc1OC | 500 µg/mL (≈ 915 µM) | 500 µg/mL (≈ 915 µM) | 62.5 µg/mL (≈ 114 µM) | 62.5 µg/mL (≈ 114 µM) | 31.2 µg/mL (≈ 57.2 µM) | 62.5 µg/mL (≈ 114 µM)
5 | O=C(CSc1nnc(-c2cccc([N+](=O)[O-])c2)o1)Nc1ccc(C(=O)/C=C\c2ccc([N+](=O)[O-])cc2)cc1 | 250 µg/mL (≈ 470 µM) | 250 µg/mL (≈ 470 µM) | 31.2 µg/mL (≈ 58.8 µM) | 62.5 µg/mL (≈ 118 µM) | 62.5 µg/mL (≈ 118 µM) | 62.5 µg/mL (≈ 118 µM)
6 | O=C(CSc1nnc(-c2cccc([N+](=O)[O-])c2)o1)Nc1ccc(C(=O)/C=C\c2ccc(O)cc2)cc1 | 62.5 µg/mL (≈ 124 µM) | 62.5 µg/mL (≈ 124 µM) | 31.2 µg/mL (≈ 62.2 µM) | 31.2 µg/mL (≈ 62.2 µM) | 125 µg/mL (≈ 249 µM) | 125 µg/mL (≈ 249 µM)
7 | CN(C)c1ccc(/C=C\C(=O)c2ccc(NC(=O)CSc3nnc(-c4cccc([N+](=O)[O-])c4)o3)cc2)cc1 | 125 µg/mL (≈ 236 µM) | 62.5 µg/mL (≈ 118 µM) | 31.2 µg/mL (≈ 59 µM) | 62.5 µg/mL (≈ 118 µM) | 125 µg/mL (≈ 236 µM) | 31.2 µg/mL (≈ 59 µM)
8 | COc1cc(/C=C\C(=O)c2ccc(NC(=O)CSc3nnc(-c4cccc([N+](=O)[O-])c4)o3)cc2)cc(OC)c1OC | 125 µg/mL (≈ 217 µM) | 250 µg/mL (≈ 434 µM) | 62.5 µg/mL (≈ 108 µM) | 62.5 µg/mL (≈ 108 µM) | 62.5 µg/mL (≈ 108 µM) | 62.5 µg/mL (≈ 108 µM)
9 | O=C(CSc1nnc(-c2cccc([N+](=O)[O-])c2)o1)Nc1ccc(C(=O)/C=C\c2c(O)ccc3ccccc23)cc1 | 62.5 µg/mL (≈ 113 µM) | 62.5 µg/mL (≈ 113 µM) | 62.5 µg/mL (≈ 113 µM) | 62.5 µg/mL (≈ 113 µM) | 62.5 µg/mL (≈ 113 µM) | 62.5 µg/mL (≈ 113 µM)
10 | O=C(O)c1cn(C2CC2)c2cc(N3CCNCC3)c(F)cc2c1=O [CIPROFLOXACIN] | – | – | 125 µg/mL (≈ 377 µM) | 125 µg/mL (≈ 377 µM) | 125 µg/mL (≈ 377 µM) | 62.5 µg/mL (≈ 189 µM)
11 | COc1ccc(/C=C\C(=O)c2ccc(NC(=O)CSc3nnc(-c4cccc([N+](=O)[O-])c4)o3)cc2)cc1 | 125 µg/mL (≈ 242 µM) | 125 µg/mL (≈ 242 µM) | 62.5 µg/mL (≈ 121 µM) | 62.5 µg/mL (≈ 121 µM) | 125 µg/mL (≈ 242 µM) | 62.5 µg/mL (≈ 121 µM)
12 | O=C(CSc1nnc(-c2cccc([N+](=O)[O-])c2)o1)Nc1ccc(C(=O)/C=C\c2ccc(Br)cc2)cc1 | 250 µg/mL (≈ 442 µM) | 250 µg/mL (≈ 442 µM) | 62.5 µg/mL (≈ 111 µM) | 62.5 µg/mL (≈ 111 µM) | 62.5 µg/mL (≈ 111 µM) | 62.5 µg/mL (≈ 111 µM)
13 | O=C(CSc1nnc(-c2cccc([N+](=O)[O-])c2)o1)Nc1ccc(C(=O)/C=C\c2ccccc2)cc1 | 125 µg/mL (≈ 257 µM) | 250 µg/mL (≈ 514 µM) | 31.2 µg/mL (≈ 64.2 µM) | 62.5 µg/mL (≈ 128 µM) | 31.2 µg/mL (≈ 64.2 µM) | 31.2 µg/mL (≈ 64.2 µM)
14 | COc1cc(/C=C\C(=O)c2ccc(NC(=O)CSc3nnc(-c4cccc([N+](=O)[O-])c4)o3)cc2)ccc1O | 250 µg/mL (≈ 469 µM) | 250 µg/mL (≈ 469 µM) | 31.2 µg/mL (≈ 58.7 µM) | 62.5 µg/mL (≈ 117 µM) | 62.5 µg/mL (≈ 117 µM) | 62.5 µg/mL (≈ 117 µM)
15 | COc1ccc(OC)c(/C=C\C(=O)c2ccc(NC(=O)CSc3nnc(-c4cccc([N+](=O)[O-])c4)o3)cc2)c1 | 125 µg/mL (≈ 229 µM) | 125 µg/mL (≈ 229 µM) | 62.5 µg/mL (≈ 114 µM) | 62.5 µg/mL (≈ 114 µM) | 125 µg/mL (≈ 229 µM) | 62.5 µg/mL (≈ 114 µM)
16 | OC(Cn1cncn1)(Cn1cncn1)c1ccc(F)cc1F [FLUCONAZOLE] | 62.5 µg/mL (≈ 204 µM) | 125 µg/mL (≈ 408 µM) | – | – | – | –
